US8871900B2, “Fibroblast growth factor (FGF) analogs and uses thereof” (University of Rochester, priority 2008, dated 2014)
Peptide text beside a SMILES is read from it.

How the values were obtained:
[1] = system: endothelial cells (adult bovine aorta endothelium); experiment: Growth bioassay, endothelial cells; assay type: cell-based; settings: FGF-P added to culture media
Method: These clusters can be counted thus allowing for measurement of relative binding coefficients. To test the feasibility of binding coefficient measurement, competition experiments were performed. Free FGF-P (30 ug/ml) was added to cells for 20 min and then the biotin-FGF-P (1 μg/mL) was added. One hour later, the streptavidin-FITC was added and analyzed by flow cytometry. […] In a third test, a bioassay was performed. FGF-P was added to culture media of two types of cells: endothelial cells (adult bovine aorta endothelium) and epithelial cells (SW480, a cell line from colon).
Three preliminary experiments were carried out using FGF-P in vitro to confirm its activity. First, the biotin conjugated FGF-P was used as a tool to examine cell surface binding. AsPC-1 pancreatic cancer epithelial cells are known to have high levels of FGFR and were used for this study. ASPC-1 cells were incubated with 1 μg/ml of biotin-FGF-P and then labeled with streptavidin-FITC. The cells were then analyzed using an imaging flow cytometer (Amnis Imagestream). This device can image each cell as it passes through the laser, and it can then sort cells according to both staining and morphological characteristics. […] These clusters were counted, allowing for measurement of relative binding coefficients. […] One hour later, streptavidin-FITC was added and analyzed by flow cytometry. […]

[2] = system: mice exposed to sub-TBI (GI syndrome); experiment: Survival after sub-TBI (GI syndrome / AGS model); assay type: in vivo, mouse (Balb/c, C57BL/6, C3H/HeN)
From the text: A sub-TBI (total body irradiation) model was created, in which one leg of mouse is shielded from the direct radiation field. With this system, 8.5 Gy can be delivered to Balb/c mice without BM deaths (defined as deaths that occur between 10 and 30 days). When sub-TBI dose was increased to 9 Gy, half the irradiated mice die, and at 10.5 Gy, 66-100% mice died within 5-7 days. Pathologically these mice have devastating gut damage. In our GI (sub-TBI) model, the LD50/7 for Balb/c mice (6-8 week old from NCI) was 8.9-9.1 Gy. Using this GI model, the mitigation effect of FGF-P on the GI syndrome was tested. FGF-P (2 mg/kg) was given im 5-10 minutes after IR and continued once a day for 3-5 consecutive days. Each animal experiment had its own vehicle mock treatment group as control.
When the sub-TBI dose is raised to 10.5 or 11 Gy, 100% of the untreated control mice died of GI syndrome, while 33-67% of mice treated with FGF-P survived 3.5 months, FIGS. 2B and 2C). When the IR dose was raised to 12 Gy, all control animals died and 17% of FGF-P treated mice survived (FIG. 2D). […] Additionally, many of the animals that do die, do so later than mice not treated with FGF-P.
Native FGF-2 has a mouse strain dependent response profile. Most strains enjoy a benefit, but responses in C57 mice have been unimpressive. To determine if the agent works in mice with different genomic backgrounds, FGF-P (2 mg/kg) was given to C57BL/6 mice 10 min after the mice were exposed to 16 Gy sub-TBI. […] A third strain of mouse, C3H/HeN (LD50/7 about 12 Gy), was also studied. At 12.5 Gy sub-TBI, 33% of control mice survived while 50% of mice treated with FGF-P survived. At 13.5 Gy, all the control mice died within 7 days, while 50% of FGF-P treated mice survived (FIG. 3B). Thus unlike native FGF the bioavailability or bioeffect of FGF-P seems to be strain independent.

[3] = Stool hemoccult score after sub-TBI; assay type: in vivo, mouse (Balb/c, C57BL/6); settings: Balb/c, 12.5 Gy sub-TBI; FGF-P 2 mg/kg im 15 min post irradiation; Amifostine iv 30 min pre-irradiation; P<0.05
From the text: There are commonly employed assays known to be relevant to both mouse and man for determining relative endpoints. These include: 1) stool blood: mucosal barrier breakdown is associated with bleeding of the small bowel; therefore, a hemoccult analysis with a commercial kit (BD Cat #64151) was used in the preliminary data at 3 days after sub-TBI. The time course and frequency of GI bleeding; 2) stool formation: the GI functions of digestion, absorption of nutrition and water, and the regular movement of intestinal muscle are required for formation of normal stool can be measured. All these functions can be upset by radiation. For example, loss of villi leads to decreased fluid absorption and diarrhea. The colon was excised and examined visually for the presence of formed stool at 3.5 days post-IR; 3) endotoximia: bacterial translocation can occur at early times following gastrointestinal radiation exposure.
2) A standard scoring scale was used to evaluate stool formation (diarrhea). The bowel was extracted from the abdomen and visually inspected. Formed stool was easily distinguished from semi-solid and liquid stool as it passed from the ascending to descending colon. FIGS. 7B and 7C show the irradiated bowel in controls compared with FGF-P-treated Balb/c mice. The FGF-P was given at a dose of 2 mg/kg im for three daily doses beginning 15 min after irradiation. […]

[4] = system: BM cells (megakaryocyte colony); experiment: Megakaryocyte colony formation of BM cells (MegaCult-C); assay type: cell-based, mouse (Balb/c); settings: cytokine cocktail reduced to 50%; FGF-P 100 ng/ml
From the text: Survival of ARS depends on rapid reconstitution of hematopoiesis after IR-induced myelosuppression. […] However, the timing and mechanism of effect on BM stem cells is unknown. Also unclear are the number of FGFRs on hematopoietic stem cells (HSCs) and their role in reconstitution after IR. […] To characterize the effects of FGF-P on BM, the study approach was to obtain fresh BM (including both HSCs and MSCs) from Balb/c mice, and culture it under varying conditions (3 D culture or 2 D round-bottom well) in triplicate for 1-3 weeks. The BM cells were stimulated with FGF-P at different doses (as test) or with EPO, TPO, GM-CSF or native FGF2 (as a positive control). The cultures were examined using several methods including colony count, photography, CyQUANT® assay and ^3H-TdR incorporation.

[5] = Blood cell counts after 4 or 5 Gy TBI; assay type: in vivo, mouse
From the text: In parallel, the leucocytes and red cells were increased as compared to vehicle-treated mice that received the same IR dose (FIGS. 17C and D).

[6] = vs vehicle-treated mice, same IR dose

Compound: CC(C)C[C@H](NC(=O)[C@H](C)NC(=O)[C@@H](NC(=O)[C@H](Cc1ccc(O)cc1)NC(=O)[C@H](Cc1c[nH]c2ccccc12)NC(=O)[C@H](CO)NC(=O)[C@H](CO)NC(=O)[C@H](Cc1ccc(O)cc1)NC(=O)[C@H](CCCCN)NC(=O)[C@H](CCCNC(=N)N)NC(=O)[C@H](CO)NC(=O)[C@H](CCCNC(=N)N)NC(=O)[C@H](Cc1ccc(O)cc1)NC(=O)[C@@H](N)CS)C(C)C)C(=O)N[C@@H](CCCCN)C(=O)N[C@@H](CCCNC(=N)N)C(=O)N[C@@H](CS)C(=O)O [FGF-P, CYRSRKYSSWYVALKRC] (H-CYRSRKYSSWYVALKRC-OH; N-terminus and C-terminus assumed)
- growth of endothelium [1]: stimulated the growth of both endothelium and epithelium
- mice still alive ([2]; Balb/c, 10 Gy sub-TBI, at 4 months, FGF-P 2 mg/kg im 5-10 min after IR, daily 3-5 days): 87%
- mice survived ([2]; Balb/c, 10.5 or 11 Gy sub-TBI, 3.5 months, FGF-P 2 mg/kg im): 33-67%
- mice survived ([2]; Balb/c, 12 Gy sub-TBI, FGF-P 2 mg/kg im): 17%
- mice survived ([2]; C3H/HeN, 12.5 Gy sub-TBI): 50%
- mice survived ([2]; C3H/HeN, 13.5 Gy sub-TBI): 50%
- mice still alive ([2]; C57BL/6, 16 Gy sub-TBI, at 1.5 months, FGF-P 2 mg/kg 10 min after IR): 33%
- long-term survival ([2]; C57BL/6, 16 Gy sub-TBI, over 2.5 months): 33%
- stool hemoccult score [3]: reduced stool hemoccult score
- megakaryocyte colony formation [4]: greatly stimulated the formation of megakaryocyte colony to the level as native FGF2
- platelet counts ([5]; 4 or 5 Gy TBI): accelerated recovery of platelet counts
- leucocytes [5, 6]: increased
- red cells [5, 6]: increased
